Test results: patent publication US20240190880A1 (THE REGENTS OF THE UNIVERSITY OF MICHIGAN, priority 2021, published 2024)

biological target: T1, ER (Homo sapiens, UniProt P03372); test: ER degradation activity, in-cell western blot analysis in T47D cells; format: cell-based; conditions: 16 hours, Table A does not say which cell line (T47D or MCF7), read-out: Potency (DC50)
T1 construct: host or cells: T47D and MCF7 human breast cancer cells
T1 sequence (P03372 1-595): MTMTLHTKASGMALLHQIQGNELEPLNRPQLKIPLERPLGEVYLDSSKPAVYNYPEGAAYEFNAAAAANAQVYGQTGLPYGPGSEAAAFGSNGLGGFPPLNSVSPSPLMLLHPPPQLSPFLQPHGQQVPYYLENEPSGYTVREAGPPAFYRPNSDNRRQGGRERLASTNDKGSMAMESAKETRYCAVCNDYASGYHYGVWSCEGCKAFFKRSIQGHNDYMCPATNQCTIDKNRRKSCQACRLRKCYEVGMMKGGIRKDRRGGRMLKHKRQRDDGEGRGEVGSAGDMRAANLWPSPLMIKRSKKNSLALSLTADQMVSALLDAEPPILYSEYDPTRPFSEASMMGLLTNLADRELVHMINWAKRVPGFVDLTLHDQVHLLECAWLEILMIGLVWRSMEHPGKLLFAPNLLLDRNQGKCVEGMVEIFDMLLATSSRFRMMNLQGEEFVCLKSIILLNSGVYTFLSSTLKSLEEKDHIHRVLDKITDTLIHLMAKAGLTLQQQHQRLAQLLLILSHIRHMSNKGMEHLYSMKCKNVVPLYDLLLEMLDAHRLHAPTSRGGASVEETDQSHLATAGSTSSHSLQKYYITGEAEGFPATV
Outline: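 In-cell western, T47D; compounds 16 h, 0.5% DMSO final; anti-rabbit-680/anti-mouse-800 secondaries, 1 h RT, dark; read on CLX imager. ER % vs untreated/DMSO wells (100%).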

Row | SMILES | DC50
1 | O=C1CCC(N2C(=O)c3cc4c(cc3C2=O)CN(CC(=O)N2CCC(N3CC(Oc5ccc([C@@H]6c7ccc(O)cc7CC[C@@H]6c6ccccc6)cc5)C3)CC2)C4)C(=O)N1 (stereo partly drawn) [E 377, 2-(2,6-dioxopiperidin-3-yl)-6-(2-(4-(3-(4-((1R,2S)-6-hydroxy-2-phenyl-1,2,3,4-tetrahydronaphthalen-1-yl)phenoxy)azetidin-1-yl)piperidin-1-yl)-2-oxoethyl)-6,7-dihydropyrrolo[3,4-f]isoindole-1,3(2H,5H)-dione] | 10 to 100 nM
2 | C[C@@H]1Cc2c([nH]c3ccccc23)[C@H](c2c(F)cc(C(=O)N3CCC4(CCC(CN5Cc6cc7c(cc6C5)C(=O)N(C5CCC(=O)NC5=O)C7=O)CC4)CC3)cc2F)N1CC(F)F (stereo partly drawn) [E 379, 6-((3-(4-((1S,3R)-2-(2,2-difluoroethyl)-3-methyl-2,3,4,9-tetrahydro-1H-pyrido[3,4-b]indol-1-yl)-3,5-difluorobenzoyl)-3-azaspiro[5.5]undecan-9-yl)methyl)-2-(2,6-dioxopiperidin-3-yl)-6,7-dihydropyrrolo[3,4-f]isoindole-1,3(2H,5H)-dione] | > 100 nM
3 | C[C@@H]1Cc2c([nH]c3ccccc23)[C@@H](c2c(F)cc(CN3CCC4(CCC(CN5Cc6cc7c(cc6C5)C(=O)N(C5CCC(=O)NC5=O)C7=O)CC4)CC3)cc2F)N1CC(F)F (stereo partly drawn) [E 380, 6-((3-(4-((1R,3R)-2-(2,2-difluoroethyl)-3-methyl-2,3,4,9-tetrahydro-1H-pyrido[3,4-b]indol-1-yl)-3,5-difluorobenzyl)-3-azaspiro[5.5]undecan-9-yl)methyl)-2-(2,6-dioxopiperidin-3-yl)-6,7-dihydropyrrolo[3,4-f]isoindole-1,3(2H,5H)-dione] | > 100 nM
4 | C[C@@H]1Cc2c([nH]c3ccccc23)[C@H](c2c(F)cc(CN3CCC4(CCC(CN5Cc6cc7c(cc6C5)C(=O)N(C5CCC(=O)NC5=O)C7=O)CC4)CC3)cc2F)N1CC(F)F (stereo partly drawn) [E 381, 6-((3-(4-((1S,3R)-2-(2,2-difluoroethyl)-3-methyl-2,3,4,9-tetrahydro-1H-pyrido[3,4-b]indol-1-yl)-3,5-difluorobenzyl)-3-azaspiro[5.5]undecan-9-yl)methyl)-2-(2,6-dioxopiperidin-3-yl)-6,7-dihydropyrrolo[3,4-f]isoindole-1,3(2H,5H)-dione] | > 100 nM
5 | C[C@@H]1Cc2c([nH]c3ccccc23)[C@@H](c2c(F)cc(CN3CCC4(CCC(C(=O)N5Cc6cc7c(cc6C5)C(=O)N(C5CCC(=O)NC5=O)C7=O)CC4)CC3)cc2F)N1CC(F)F (stereo partly drawn) [E 382, 6-(3-(4-((1R,3R)-2-(2,2-difluoroethyl)-3-methyl-2,3,4,9-tetrahydro-1H-pyrido[3,4-b]indol-1-yl)-3,5-difluorobenzyl)-3-azaspiro[5.5]undecane-9-carbonyl)-2-(2,6-dioxopiperidin-3-yl)-6,7-dihydropyrrolo[3,4-f]isoindole-1,3(2H,5H)-dione] | > 100 nM
6 | O=C1CCC(N2C(=O)c3cc4c(cc3C2=O)CN(C2CCC(C(=O)N3CC(Oc5ccc([C@H]6c7ccc(O)cc7CC[C@H]6c6ccccc6)cc5)C3)CC2)C4)C(=O)N1 (stereo partly drawn) [E 384, 2-(2,6-dioxopiperidin-3-yl)-6-((1R,4s)-4-(3-(4-((1S,2R)-6-hydroxy-2-phenyl-1,2,3,4-tetrahydronaphthalen-1-yl)phenoxy)azetidine-1-carbonyl)cyclohexyl)-6,7-dihydropyrrolo[3,4-f]isoindole-1,3(2H,5H)-dione] | 10 to 100 nM
7 | O=C1CCC(N2C(=O)c3cc4c(cc3C2=O)CN([C@H]2CC[C@H](C(=O)N3CC(Oc5ccc([C@H]6c7ccc(O)cc7CC[C@H]6c6ccccc6)cc5)C3)CC2)C4)C(=O)N1 (stereo partly drawn) [E 385, 2-(2,6-dioxopiperidin-3-yl)-6-((1S,4r)-4-(3-(4-((1S,2R)-6-hydroxy-2-phenyl-1,2,3,4-tetrahydronaphthalen-1-yl)phenoxy)azetidine-1-carbonyl)cyclohexyl)-6,7-dihydropyrrolo[3,4-f]isoindole-1,3(2H,5H)-dione] | < 10 nM
8 | O=C1CCC(N2C(=O)c3cc4c(cc3C2=O)CN([C@H]2CC[C@H](C(=O)N3CC(Nc5ccc([C@H]6c7ccc(O)cc7CC[C@H]6c6ccccc6)cc5)C3)CC2)C4)C(=O)N1 (stereo partly drawn) [E 387, 2-(2,6-dioxopiperidin-3-yl)-6-((1S,4r)-4-(3-((4-((1S,2R)-6-hydroxy-2-phenyl-1,2,3,4-tetrahydronaphthalen-1-yl)phenyl)amino)azetidine-1-carbonyl)cyclohexyl)-6,7-dihydropyrrolo[3,4-f]isoindole-1,3(2H,5H)-dione] | < 10 nM
9 | O=C1CCC(N2C(=O)c3cc4c(cc3C2=O)CN(C(=O)[C@H]2CC[C@H](N3CC(Oc5ccc([C@H]6c7ccc(O)cc7CC[C@H]6c6ccccc6)cc5)C3)CC2)C4)C(=O)N1 (stereo partly drawn) [E 388, 2-(2,6-dioxopiperidin-3-yl)-6-((1S,4r)-4-(3-(4-((1S,2R)-6-hydroxy-2-phenyl-1,2,3,4-tetrahydronaphthalen-1-yl)phenoxy)azetidin-1-yl)cyclohexane-1-carbonyl)-6,7-dihydropyrrolo[3,4-f]isoindole-1,3(2H,5H)-dione] | 10 to 100 nM

Further lines, results first:

Row | DC50 | SMILES
10 | > 100 nM | O=C1CCC(N2C(=O)c3cc4c(cc3C2=O)CN(CC(=O)N2CCC(C(=O)N3CC(Oc5ccc([C@@H]6c7ccc(O)cc7CC[C@@H]6c6ccccc6)cc5)C3)CC2)C4)C(=O)N1 (stereo partly drawn) [E 376, 2-(2,6-dioxopiperidin-3-yl)-6-(2-(4-(3-(4-((1R,2S)-6-hydroxy-2-phenyl-1,2,3,4-tetrahydronaphthalen-1-yl)phenoxy)azetidine-1-carbonyl)piperidin-1-yl)-2-oxoethyl)-6,7-dihydropyrrolo[3,4-f]isoindole-1,3(2H,5H)-dione]
11 | > 100 nM | C[C@@H]1Cc2c([nH]c3ccccc23)[C@@H](c2c(F)cc(C(=O)N3CCC4(CCC(CN5Cc6cc7c(cc6C5)C(=O)N(C5CCC(=O)NC5=O)C7=O)CC4)CC3)cc2F)N1CC(F)F (stereo partly drawn) [E 378, 6-((3-(4-((1R,3R)-2-(2,2-difluoroethyl)-3-methyl-2,3,4,9-tetrahydro-1H-pyrido[3,4-b]indol-1-yl)-3,5-difluorobenzoyl)-3-azaspiro[5.5]undecan-9-yl)methyl)-2-(2,6-dioxopiperidin-3-yl)-6,7-dihydropyrrolo[3,4-f]isoindole-1,3(2H,5H)-dione]
12 | > 100 nM | C[C@@H]1Cc2c([nH]c3ccccc23)[C@H](c2c(F)cc(CN3CCC4(CCC(C(=O)N5Cc6cc7c(cc6C5)C(=O)N(C5CCC(=O)NC5=O)C7=O)CC4)CC3)cc2F)N1CC(F)F (stereo partly drawn) [E 383, 6-(3-(4-((1S,3R)-2-(2,2-difluoroethyl)-3-methyl-2,3,4,9-tetrahydro-1H-pyrido[3,4-b]indol-1-yl)-3,5-difluorobenzyl)-3-azaspiro[5.5]undecane-9-carbonyl)-2-(2,6-dioxopiperidin-3-yl)-6,7-dihydropyrrolo[3,4-f]isoindole-1,3(2H,5H)-dione]
13 | > 100 nM | O=C1CCC(N2C(=O)c3cc4c(cc3C2=O)CN([C@H]2CC[C@@H](C(=O)N3CC(Nc5ccc([C@H]6c7ccc(O)cc7CC[C@H]6c6ccccc6)cc5)C3)CC2)C4)C(=O)N1 (stereo partly drawn) [E 386, 2-(2,6-dioxopiperidin-3-yl)-6-((1R,4s)-4-(3-((4-((1S,2R)-6-hydroxy-2-phenyl-1,2,3,4-tetrahydronaphthalen-1-yl)phenyl)amino)azetidine-1-carbonyl)cyclohexyl)-6,7-dihydropyrrolo[3,4-f]isoindole-1,3(2H,5H)-dione]
